Patent US20260102418A1, “An anti-influenza virus derivative and uses thereof” (Shijiazhuang Discovery Medicine Technology Co., Ltd., priority 2022, published 2026)

Test system: A/Weiss/43 (H1N1) oseltamivir-resistant strain
Assay: Antiviral CPE assay in MDCK, other influenza strains
Format: cell-based, influenza A virus (IAV)
Conditions: Influenza A virus

Row | Compound | EC50
1 | COC(=O)OCOc1c2n(ccc1=O)N([C@@H]1c3ccccc3SCc3c1ccc(F)c3F)[C@@H]1COC3(CC3)CN1C2=O [Compound M42, reference compound] | 2.11 ± 0.72 nM
2 | [2H]C([2H])([2H])OC(=O)OCOc1c2n(ccc1=O)N([C@@H]1c3ccccc3[Se]Cc3c1ccc(F)c3F)[C@@H]1COC3(CC3)CN1C2=O [DS1833] | 1.16 ± 0.37 nM
3 | [2H]C([2H])([2H])OC(=O)OCOc1c2n(ccc1=O)N([C@@H]1c3ccccc3SCc3c1ccc(F)c3F)[C@@H]1COC3(CC3)CN1C2=O [DS1837] | 1.45 ± 0.55 nM
4 | O=C1c2c(OCOP(=O)(O)O)c(=O)ccn2N([C@@H]2c3ccccc3[Se]Cc3c2ccc(F)c3F)[C@@H]2COC3(CC3)CN12 [DS14915] | 1.33 ± 0.22 nM
5 | NC(=O)c1ncn([C@@H]2O[C@H](CO)[C@@H](O)[C@H]2O)n1 [Ribavirin, reference compound] | 30300 ± 4080 nM
